Test results from paper PMC11060137, “A Phase I Study of KIN-3248, an Irreversible Small-molecule Pan-FGFR Inhibitor, in Patients with Advanced FGFR2/3-driven Solid Tumors” (Cancer Research Communications, 2024).
Read-outs that look alike come from different tables or passages of the source.

Legend:
[1] = system: patients with advanced solid tumors harboring FGFR2 and/or FGFR3 gene alterations
Experimental: The study was divided into two parts. […] The secondary objectives included antitumor activity in Part A, determination of pharmacokinetics and pharmacodynamics.
Dose level 1 was started at 5 mg oral daily, and patients were escalated on study to 50 mg daily. On the basis of ongoing efficacy, toxicity, and pharmacokinetic analysis, a planned amendment added additional cohorts up to 80 mg orally daily to define the MTD/RP2D. […] One cycle was 28 days of continuous dosing. Intrapatient dose escalation after safely tolerating two cycles was allowed if per protocol criteria were met. Patients continued therapy until evidence of disease progression, intolerance or unacceptable toxicity, withdrawal of consent, investigator decision, sponsor decision, or death.
Patients were evaluated with medical history, physical examinations, and clinical laboratory on days 1, 8, 15, and 22 of cycle 1; days 1 and 15 from cycle 2 through cycle 5; and day 1 of each subsequent cycle. […] Except for hyperphosphatemia, adverse events (AE) were graded according to the NCI-CTCAE (Common Terminology Criteria for Adverse Events) Version 5.0 at each study visit and for approximately 30 days following end of treatment.
The primary endpoints for the overall study, included: the incidence of DLTs, incidence of AEs, treatment-emergent AEs (TEAE), and treatment-related AEs (TRAE).

[2] = system: phospho-ERK; assay: Phospho-ERK relative to total ERK by IHC in paired biopsies; assay type: in vivo, human
Experimental: (§1) As FGFR1 is expressed in renal tubules and pharmacologic inhibition of FGFR1 leads to phosphate retention ([18]), serum phosphate levels were measured at each study visit as a pharmacodynamic biomarker. Paired pretreatment and on-treatment biopsies (cycle 1 day 8 to day 21) were collected and analyzed for phospho-ERK and total ERK by IHC. DUSP6 gene expression was measured in tumor samples using RNA ISH (RNAscope; probes from Advanced Cell Diagnostics).

[3] = system: serum phosphate; assay: Serum phosphate as pharmacodynamic biomarker; assay type: in vivo, human
Experimental: as §1

[4] = system: wild-type FGFR; parameters: method as in PMID 38267212; conditions: cited from earlier work
[5] = system: gatekeeper (V564F) resistance mutation; parameters: method as in PMID 38267212; conditions: cited from earlier work

## C=CC(=O)N1C[C@@H](n2nc(C#Cc3c(F)cc4c(ncn4C4CC4)c3F)c(C(N)=O)c2NC)C[C@@H]1COC [KIN-3248]
[1]; CTCAE (V5) Grade 3, N = 54
  TEAE Blood and lymphatic system disorders, n (%): 3 (5.6%)
  TEAE Blood creatinine increased, n (%): 0
  TEAE Constipation, n (%): 0
  TEAE Decreased appetite, n (%): 0
  TEAE Diarrhea, n (%): 0
  TEAE Dry mouth, n (%): 0
  TEAE Eye disorders, n (%): 0
  TEAE Fatigue, n (%): 0
  TEAE Gastrointestinal disorders, n (%): 5 (9.3%)
  TEAE General disorders and administration site conditions, n (%): 0
  TEAE Hypercalcemia, n (%): 1 (1.9%)
  TEAE Hyperphosphatemia, n (%): 8 (14.8%)
  TEAE Infections and infestations, n (%): 4 (7.4%)
  TEAE Investigations, n (%): 2 (3.7%)
  TEAE Metabolism and nutrition disorders, n (%): 10 (18.5%)
  TEAE Musculoskeletal and connective tissue disorders, n (%): 1 (1.9%)
  TEAE Nausea, n (%): 0
  TEAE Nervous system disorders, n (%): 2 (3.7%)
  TEAE Psychiatric disorders, n (%): 0
  TEAE Respiratory, thoracic, and mediastinal disorders, n (%): 1 (1.9%)
  TEAE Skin and subcutaneous tissue disorders, n (%): 0
  TEAE Stomatitis, n (%): 0
  TEAE Vascular disorders, n (%): 3 (5.6%)
[1]; CTCAE (V5) Grade 4–5, N = 54
  Patient with any TEAE, n (%): 7 (13.0%)
  TEAE Alanine aminotransferase increased, n (%): 0
  TEAE Anemia, n (%): 0
  TEAE Aspartate aminotransferase increased, n (%): 0
  TEAE Blood and lymphatic system disorders, n (%): 0
  TEAE Blood creatinine increased, n (%): 0
  TEAE Constipation, n (%): 0
  TEAE Decreased appetite, n (%): 0
  TEAE Diarrhea, n (%): 0
  TEAE Dry mouth, n (%): 0
  TEAE Eye disorders, n (%): 0
  TEAE Fatigue, n (%): 0
  TEAE Gastrointestinal disorders, n (%): 0
  TEAE General disorders and administration site conditions, n (%): 1 (1.9%)
  TEAE Hypercalcemia, n (%): 0
  TEAE Hyperphosphatemia, n (%): 0
  TEAE Infections and infestations, n (%): 2 (3.7%)
  TEAE Investigations, n (%): 2 (3.7%)
  TEAE Metabolism and nutrition disorders, n (%): 0
  TEAE Musculoskeletal and connective tissue disorders, n (%): 0
  TEAE Nausea, n (%): 0
  TEAE Nervous system disorders, n (%): 1 (1.9%)
  TEAE Psychiatric disorders, n (%): 0
  TEAE Respiratory, thoracic, and mediastinal disorders, n (%): 1 (1.9%)
  TEAE Skin and subcutaneous tissue disorders, n (%): 0
  TEAE Stomatitis, n (%): 0
  TEAE Vascular disorders, n (%): 0
[1]; doses up to 50 mg orally daily
  MTD: not reached
[1]; in vivo
  Treatment-related deaths: no treatment-related deaths
[1]; only event reported in more than 1 patient
  Treatment-related grade 3 hyperphosphatasemia: 14.8%
[1]; three related to progressive disease, one to a cardiovascular accident
  TEAE deaths: Four
[2]; eleven paired biopsy samples, IHC
  Phospho-ERK relative to total-ERK: trend toward reduction
[2]; paired pretreatment and on-treatment biopsies
  Samples tested with a reduction in p-ERK: 50%
[3]; 54 participants
  Serum phosphate versus dose and exposure: increased with dose and exposure
[3]; all dose levels
  Onset of serum phosphate elevations: within the f irst week
[4]
  IC50: low nanomolar
[5]
  IC50: low nanomolar
